Test [1] concerns the target 5-hydroxytryptamine receptor 2B (Homo sapiens, UniProt P41595). The test is classed as functional, cell-based.
The target of test [2] is T1, Amine oxidase [flavin-containing] A (Homo sapiens, UniProt P21397).
T1 sequence (P21397 whole entry): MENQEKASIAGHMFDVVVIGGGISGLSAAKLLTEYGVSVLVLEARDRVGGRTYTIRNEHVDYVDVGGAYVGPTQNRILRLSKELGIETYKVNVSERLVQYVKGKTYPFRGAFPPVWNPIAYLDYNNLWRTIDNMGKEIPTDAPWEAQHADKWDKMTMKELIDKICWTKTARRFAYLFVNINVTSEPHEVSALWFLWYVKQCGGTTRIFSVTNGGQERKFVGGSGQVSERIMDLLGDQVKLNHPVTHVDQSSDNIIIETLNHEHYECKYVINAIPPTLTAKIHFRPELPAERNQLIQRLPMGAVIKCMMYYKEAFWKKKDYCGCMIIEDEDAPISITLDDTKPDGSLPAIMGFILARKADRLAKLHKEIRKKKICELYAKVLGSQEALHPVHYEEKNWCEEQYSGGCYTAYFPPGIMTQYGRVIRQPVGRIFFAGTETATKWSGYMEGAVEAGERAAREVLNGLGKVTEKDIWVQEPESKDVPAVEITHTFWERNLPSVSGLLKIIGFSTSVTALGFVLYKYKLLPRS
The test is classed as functional.

Test [3] concerns the target cGMP-inhibited 3',5'-cyclic phosphodiesterase 3A (Homo sapiens, UniProt Q14432). The test is classed as functional.
The target in test [4] is T2, Alpha-2A adrenergic receptor (Homo sapiens, UniProt P08913).
T2 sequence (P08913 whole entry): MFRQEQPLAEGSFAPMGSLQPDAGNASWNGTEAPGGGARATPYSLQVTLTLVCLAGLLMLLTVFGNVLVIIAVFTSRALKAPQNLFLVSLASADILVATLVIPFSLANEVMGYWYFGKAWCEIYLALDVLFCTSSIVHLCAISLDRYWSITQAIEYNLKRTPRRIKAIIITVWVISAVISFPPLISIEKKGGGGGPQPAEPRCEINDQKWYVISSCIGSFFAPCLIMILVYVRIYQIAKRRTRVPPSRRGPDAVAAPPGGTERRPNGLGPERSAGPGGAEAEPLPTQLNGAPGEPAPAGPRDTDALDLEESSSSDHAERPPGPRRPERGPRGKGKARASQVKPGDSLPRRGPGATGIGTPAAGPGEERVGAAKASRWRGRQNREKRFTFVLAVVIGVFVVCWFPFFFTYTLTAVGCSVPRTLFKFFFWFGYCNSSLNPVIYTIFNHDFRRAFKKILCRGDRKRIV

Another test has as its target Prothrombin (Homo sapiens, UniProt P00734). The test is classed as functional.
The next test concerns the target Acetylcholinesterase (Homo sapiens, UniProt P22303). The test is classed as functional.
The target of test [5] is T3, Thromboxane A2 receptor (Homo sapiens, UniProt P21731).
T3 sequence (P21731 whole entry): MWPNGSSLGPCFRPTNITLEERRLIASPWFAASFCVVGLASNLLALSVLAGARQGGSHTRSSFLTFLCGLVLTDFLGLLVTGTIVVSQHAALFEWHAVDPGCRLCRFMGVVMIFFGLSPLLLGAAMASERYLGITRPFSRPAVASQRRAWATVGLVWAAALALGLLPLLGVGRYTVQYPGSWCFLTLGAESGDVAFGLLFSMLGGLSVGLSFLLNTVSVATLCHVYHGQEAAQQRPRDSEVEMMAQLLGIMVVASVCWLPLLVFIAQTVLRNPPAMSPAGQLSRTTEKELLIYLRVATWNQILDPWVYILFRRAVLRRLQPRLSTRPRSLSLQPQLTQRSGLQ
The class given is functional, cell-based.

Test [6] concerns the target T4, 5-hydroxytryptamine receptor 1A (Homo sapiens, UniProt P08908).
T4 sequence (P08908 whole entry): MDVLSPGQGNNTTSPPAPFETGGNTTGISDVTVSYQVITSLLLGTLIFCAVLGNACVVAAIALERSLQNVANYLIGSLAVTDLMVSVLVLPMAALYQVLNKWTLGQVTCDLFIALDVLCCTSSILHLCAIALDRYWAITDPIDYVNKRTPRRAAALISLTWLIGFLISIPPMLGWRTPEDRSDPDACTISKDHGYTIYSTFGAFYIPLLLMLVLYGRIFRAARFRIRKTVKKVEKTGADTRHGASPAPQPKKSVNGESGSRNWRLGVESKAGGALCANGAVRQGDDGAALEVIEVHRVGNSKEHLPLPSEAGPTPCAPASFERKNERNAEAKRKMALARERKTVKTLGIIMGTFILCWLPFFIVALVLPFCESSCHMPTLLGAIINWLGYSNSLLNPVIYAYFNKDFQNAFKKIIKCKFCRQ

In test [7] the target is Sodium-dependent dopamine transporter (Homo sapiens, UniProt Q01959).
Chain of Sodium-dependent dopamine transporter (Q01959 whole entry): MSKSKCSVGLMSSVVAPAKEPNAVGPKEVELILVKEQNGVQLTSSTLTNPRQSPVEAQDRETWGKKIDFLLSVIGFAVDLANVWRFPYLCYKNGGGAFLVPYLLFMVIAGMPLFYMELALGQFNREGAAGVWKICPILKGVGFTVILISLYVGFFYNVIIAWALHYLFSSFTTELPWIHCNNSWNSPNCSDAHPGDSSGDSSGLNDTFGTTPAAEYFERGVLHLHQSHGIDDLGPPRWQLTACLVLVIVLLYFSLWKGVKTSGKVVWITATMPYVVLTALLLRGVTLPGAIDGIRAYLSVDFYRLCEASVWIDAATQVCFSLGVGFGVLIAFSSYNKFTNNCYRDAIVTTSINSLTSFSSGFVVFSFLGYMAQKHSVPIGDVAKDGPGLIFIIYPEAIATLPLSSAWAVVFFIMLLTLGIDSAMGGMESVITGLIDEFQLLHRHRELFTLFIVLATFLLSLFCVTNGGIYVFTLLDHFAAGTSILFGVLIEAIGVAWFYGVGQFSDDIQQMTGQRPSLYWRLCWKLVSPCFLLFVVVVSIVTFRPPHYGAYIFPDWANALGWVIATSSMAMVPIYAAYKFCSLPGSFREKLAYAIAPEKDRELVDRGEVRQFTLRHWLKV
Test [8] has as its target T3, Thromboxane A2 receptor. The test is classed as functional, cell-based. The source holds these as a separate data set.
The target in test [9] is T5, Muscarinic acetylcholine receptor M2 (Homo sapiens, UniProt P08172).
T5 sequence (P08172 whole entry): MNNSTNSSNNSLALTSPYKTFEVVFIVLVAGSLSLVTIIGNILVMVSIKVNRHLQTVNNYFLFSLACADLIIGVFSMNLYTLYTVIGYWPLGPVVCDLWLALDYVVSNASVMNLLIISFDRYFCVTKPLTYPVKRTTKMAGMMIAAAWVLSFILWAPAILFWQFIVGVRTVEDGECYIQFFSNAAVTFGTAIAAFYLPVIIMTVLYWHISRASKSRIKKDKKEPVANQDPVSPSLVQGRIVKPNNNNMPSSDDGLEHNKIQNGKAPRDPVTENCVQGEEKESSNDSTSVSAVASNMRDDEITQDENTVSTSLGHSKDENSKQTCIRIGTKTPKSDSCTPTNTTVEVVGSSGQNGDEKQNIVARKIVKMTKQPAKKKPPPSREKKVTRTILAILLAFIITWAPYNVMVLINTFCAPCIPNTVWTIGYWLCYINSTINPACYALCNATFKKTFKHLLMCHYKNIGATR

A further test addresses Histamine H3 receptor (Homo sapiens, UniProt Q9Y5N1).
The target of test [10] is 3',5'-cyclic-AMP phosphodiesterase 4A (Homo sapiens, UniProt P27815). The test is classed as functional.
Chain of 3',5'-cyclic-AMP phosphodiesterase 4A (P27815 whole entry): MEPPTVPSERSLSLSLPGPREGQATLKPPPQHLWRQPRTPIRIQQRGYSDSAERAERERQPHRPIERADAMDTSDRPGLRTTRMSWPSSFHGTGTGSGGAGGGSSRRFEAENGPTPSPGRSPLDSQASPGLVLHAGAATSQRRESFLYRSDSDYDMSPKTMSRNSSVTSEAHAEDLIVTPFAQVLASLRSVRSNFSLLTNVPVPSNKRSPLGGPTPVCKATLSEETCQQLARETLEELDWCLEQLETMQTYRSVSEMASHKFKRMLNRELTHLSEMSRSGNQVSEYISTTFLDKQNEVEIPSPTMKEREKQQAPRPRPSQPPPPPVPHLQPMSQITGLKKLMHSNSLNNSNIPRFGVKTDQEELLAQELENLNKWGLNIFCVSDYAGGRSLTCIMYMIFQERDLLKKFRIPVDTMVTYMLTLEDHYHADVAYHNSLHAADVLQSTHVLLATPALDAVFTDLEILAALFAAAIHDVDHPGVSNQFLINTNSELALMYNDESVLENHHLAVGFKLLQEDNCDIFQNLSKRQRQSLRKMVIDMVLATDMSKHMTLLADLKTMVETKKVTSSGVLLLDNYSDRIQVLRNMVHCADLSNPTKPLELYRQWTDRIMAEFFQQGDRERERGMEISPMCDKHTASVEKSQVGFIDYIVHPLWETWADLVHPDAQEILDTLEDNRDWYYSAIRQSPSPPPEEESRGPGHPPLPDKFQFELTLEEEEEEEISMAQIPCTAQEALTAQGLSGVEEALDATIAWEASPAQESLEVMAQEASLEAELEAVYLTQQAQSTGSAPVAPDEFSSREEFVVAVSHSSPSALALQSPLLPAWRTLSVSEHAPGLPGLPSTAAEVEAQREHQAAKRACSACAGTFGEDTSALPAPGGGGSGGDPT
The target in test [11] is Voltage-gated inwardly rectifying potassium channel KCNH2 (Homo sapiens, UniProt Q12809). The test is classed as functional.
In test [12] the target is T2, Alpha-2A adrenergic receptor. The class given is functional, cell-based.
Test [13] concerns the target Kappa-type opioid receptor (Homo sapiens, UniProt P41145).
Further: assay procedure not described here.

Chain of Acetylcholinesterase (P22303 whole entry): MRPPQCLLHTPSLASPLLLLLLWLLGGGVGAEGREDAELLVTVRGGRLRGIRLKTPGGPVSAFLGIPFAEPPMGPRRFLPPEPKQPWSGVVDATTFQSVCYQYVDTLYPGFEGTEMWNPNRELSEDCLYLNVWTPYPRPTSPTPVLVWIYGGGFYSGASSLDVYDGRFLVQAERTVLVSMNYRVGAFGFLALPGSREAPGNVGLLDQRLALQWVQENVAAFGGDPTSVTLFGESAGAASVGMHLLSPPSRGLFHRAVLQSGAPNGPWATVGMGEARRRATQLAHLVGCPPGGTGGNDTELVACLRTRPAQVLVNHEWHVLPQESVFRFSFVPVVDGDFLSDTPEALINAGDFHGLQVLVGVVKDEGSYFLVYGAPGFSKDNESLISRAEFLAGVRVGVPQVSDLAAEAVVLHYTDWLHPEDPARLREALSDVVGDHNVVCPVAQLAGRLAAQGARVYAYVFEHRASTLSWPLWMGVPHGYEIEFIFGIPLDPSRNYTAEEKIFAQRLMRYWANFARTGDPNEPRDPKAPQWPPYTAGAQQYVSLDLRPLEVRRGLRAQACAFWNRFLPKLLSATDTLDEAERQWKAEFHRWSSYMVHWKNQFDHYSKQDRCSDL
Chain of cGMP-inhibited 3',5'-cyclic phosphodiesterase 3A (Q14432 whole entry): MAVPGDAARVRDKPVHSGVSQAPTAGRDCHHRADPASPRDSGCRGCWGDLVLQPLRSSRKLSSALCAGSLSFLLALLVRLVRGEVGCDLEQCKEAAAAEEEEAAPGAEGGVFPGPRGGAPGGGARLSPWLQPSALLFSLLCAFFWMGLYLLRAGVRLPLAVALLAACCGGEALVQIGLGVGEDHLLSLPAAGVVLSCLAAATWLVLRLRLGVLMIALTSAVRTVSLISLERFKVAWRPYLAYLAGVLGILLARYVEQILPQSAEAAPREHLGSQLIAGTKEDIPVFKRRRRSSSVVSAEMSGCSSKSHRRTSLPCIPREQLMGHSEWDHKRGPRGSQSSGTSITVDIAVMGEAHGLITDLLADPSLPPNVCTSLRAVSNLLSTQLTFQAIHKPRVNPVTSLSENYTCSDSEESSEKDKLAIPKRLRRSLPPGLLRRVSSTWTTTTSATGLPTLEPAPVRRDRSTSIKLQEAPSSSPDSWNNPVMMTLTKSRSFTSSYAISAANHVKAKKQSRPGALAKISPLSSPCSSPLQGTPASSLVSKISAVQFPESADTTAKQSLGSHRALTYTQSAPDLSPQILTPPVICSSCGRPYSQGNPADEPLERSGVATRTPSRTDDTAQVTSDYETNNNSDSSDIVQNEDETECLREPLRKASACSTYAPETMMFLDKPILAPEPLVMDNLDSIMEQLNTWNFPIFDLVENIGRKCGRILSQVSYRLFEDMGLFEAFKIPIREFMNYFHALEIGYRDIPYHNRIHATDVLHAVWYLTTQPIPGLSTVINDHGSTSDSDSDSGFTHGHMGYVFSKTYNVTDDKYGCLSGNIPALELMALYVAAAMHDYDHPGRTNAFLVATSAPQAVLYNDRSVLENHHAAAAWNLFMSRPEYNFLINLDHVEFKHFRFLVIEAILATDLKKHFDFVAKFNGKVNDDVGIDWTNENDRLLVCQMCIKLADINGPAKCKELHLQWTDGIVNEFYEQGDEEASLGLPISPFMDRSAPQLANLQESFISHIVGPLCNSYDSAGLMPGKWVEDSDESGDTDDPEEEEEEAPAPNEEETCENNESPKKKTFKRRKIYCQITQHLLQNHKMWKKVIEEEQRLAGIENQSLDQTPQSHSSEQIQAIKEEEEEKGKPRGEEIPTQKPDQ
Chain of Histamine H3 receptor (Q9Y5N1 whole entry): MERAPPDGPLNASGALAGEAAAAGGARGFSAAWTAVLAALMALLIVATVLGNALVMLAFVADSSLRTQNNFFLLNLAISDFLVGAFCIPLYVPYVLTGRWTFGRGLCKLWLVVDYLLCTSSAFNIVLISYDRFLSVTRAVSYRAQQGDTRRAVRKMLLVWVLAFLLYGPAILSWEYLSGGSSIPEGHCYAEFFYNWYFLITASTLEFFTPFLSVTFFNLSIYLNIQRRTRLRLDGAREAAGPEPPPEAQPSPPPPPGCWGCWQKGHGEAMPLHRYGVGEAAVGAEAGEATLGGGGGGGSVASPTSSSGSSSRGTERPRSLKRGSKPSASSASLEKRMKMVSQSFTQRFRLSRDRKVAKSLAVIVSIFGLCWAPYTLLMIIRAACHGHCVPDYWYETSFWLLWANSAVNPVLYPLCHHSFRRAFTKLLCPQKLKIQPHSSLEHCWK
Chain of 5-hydroxytryptamine receptor 2B (P41595 whole entry): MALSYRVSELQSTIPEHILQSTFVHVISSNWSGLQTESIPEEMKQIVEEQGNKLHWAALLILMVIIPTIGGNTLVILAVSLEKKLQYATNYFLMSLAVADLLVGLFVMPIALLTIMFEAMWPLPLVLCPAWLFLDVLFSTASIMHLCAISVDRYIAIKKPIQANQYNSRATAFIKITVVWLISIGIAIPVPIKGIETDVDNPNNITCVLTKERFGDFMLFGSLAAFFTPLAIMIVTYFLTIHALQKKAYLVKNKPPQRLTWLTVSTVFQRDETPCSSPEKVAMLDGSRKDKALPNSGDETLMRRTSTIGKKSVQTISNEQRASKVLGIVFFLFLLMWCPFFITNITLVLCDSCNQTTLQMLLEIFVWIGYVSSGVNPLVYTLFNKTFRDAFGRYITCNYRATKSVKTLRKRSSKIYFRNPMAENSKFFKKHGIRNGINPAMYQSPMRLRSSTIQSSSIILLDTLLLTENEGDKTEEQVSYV
Chain of Kappa-type opioid receptor (P41145 whole entry): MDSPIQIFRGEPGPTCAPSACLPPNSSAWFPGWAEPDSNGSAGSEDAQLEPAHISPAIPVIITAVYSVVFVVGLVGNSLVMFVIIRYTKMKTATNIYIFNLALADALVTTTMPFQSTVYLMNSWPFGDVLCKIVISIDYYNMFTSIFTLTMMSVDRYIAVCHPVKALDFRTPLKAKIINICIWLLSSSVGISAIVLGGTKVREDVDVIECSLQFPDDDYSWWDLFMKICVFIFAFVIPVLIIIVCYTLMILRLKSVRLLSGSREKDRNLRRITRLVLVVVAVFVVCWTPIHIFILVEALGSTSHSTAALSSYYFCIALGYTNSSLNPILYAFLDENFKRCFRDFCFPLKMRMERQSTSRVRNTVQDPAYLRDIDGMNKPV

Consider `CC(=O)[C@]1(N)Cc2c(O)c3c(c(O)c2[C@@H](O[C@H]2C[C@H](O)[C@H](O)CO2)C1)C(=O)c1ccccc1C3=O` [AMRUBICIN], for which the AC50 (in test [1]; in test [2]; in [3]; in [4]; at Prothrombin; on Acetylcholinesterase) was more than 30 µM in each case. Further, the AC50 at Thromboxane A2 receptor [5] is 11.8 µM; in test [6], more than 30 µM; in test [7], more than 30 µM; at Thromboxane A2 receptor [8], more than 1 µM; in test [9] it was more than 30 µM; at Histamine H3 receptor, more than 30 µM. The same compound yielded an AC50 in [10] of more than 30 µM.
For `O=C(CCC/C=C\C[C@@H]1[C@@H](CC[C@@H](O)CCc2ccccc2)[C@H](O)C[C@@H]1O)OCCCCO[N+](=O)[O-]` [LATANOPROSTENE BUNOD], the AC50 (in test [1]; in test [2]; in test [3]; in test [4]; on Prothrombin; on Acetylcholinesterase) was more than 30 µM each time. Also, the AC50 at Thromboxane A2 receptor [5] was more than 30 µM; in test [6] it was more than 30 µM; in test [7] it was more than 30 µM; on Thromboxane A2 receptor [8], more than 10 µM; in [9] it was more than 30 µM; at Histamine H3 receptor, more than 30 µM. The compound further showed an AC50 in test [10] of more than 30 µM.
Regarding `CC(=O)[C@H]1CC[C@H]2[C@@H]3C=CC4=CC(=O)CC[C@@]4(C)[C@@H]3CC[C@]12C` [DYDROGESTERONE], the AC50 (in [1]; in [2]; in test [3]; in [4]; at Prothrombin; at Acetylcholinesterase) was more than 30 µM each time. The half-maximal activity concentration (AC50) is more than 30 µM on Thromboxane A2 receptor [5]; more than 30 µM in [6]; more than 30 µM in test [7]; 25.1 µM on Thromboxane A2 receptor [8]; more than 30 µM in test [9]; more than 30 µM on Histamine H3 receptor. Besides, the AC50 in test [10] is more than 30 µM.
For `Cc1cn([C@H]2O[C@@H](CO)[C@H](O)[C@H]2F)c(=O)[nH]c1=O` [CLEVUDINE], the AC50 (in test [1]; in [2]; in test [3]; in [4]; on Prothrombin; at Acetylcholinesterase) was more than 30 µM each time. Moreover, the concentration at half-maximal activity (AC50) (at Thromboxane A2 receptor [5]; in test [6]; in test [7]; on Thromboxane A2 receptor [8]; in test [9]; at Histamine H3 receptor) was more than 30 µM throughout. For the same compound, the AC50 in test [10] is more than 30 µM.
Regarding `COc1ccc2c(C(=S)N(C)CC(=O)O)cccc2c1C(F)(F)F` [TOLRESTAT], the concentration at half-maximal activity (AC50) (in test [1]; in test [2]; in [3]; in test [4]; on Prothrombin; at Acetylcholinesterase) was more than 30 µM throughout. The AC50 (on Thromboxane A2 receptor [5]; in test [6]; in test [7]; at Thromboxane A2 receptor [8]; in [9]; on Histamine H3 receptor) was more than 30 µM throughout. Also, in [10], the AC50 is more than 30 µM.
For `NNCCc1ccccc1` [PHENELZINE], the half-maximal activity concentration (AC50) is more than 30 µM in [1]; more than 30 µM in [3]; 25.4 µM in [4]; more than 30 µM at Prothrombin; more than 30 µM at Acetylcholinesterase; more than 30 µM in [11]. Moreover, the half-maximal activity concentration (AC50) (at Thromboxane A2 receptor [5]; in test [7]; at Thromboxane A2 receptor [8]; in [9]; at Histamine H3 receptor; in test [10]) was more than 30 µM in each case.
Consider `COc1cc(C)c2c(Oc3cccc(C(F)(F)F)c3)c(OC)cc(NC(C)CCCN)c2n1` (centres undefined) [TAFENOQUINE], for which the half-maximal activity concentration (AC50) (in [1]; in [2]; in [3]; in test [4]; on Prothrombin; at Acetylcholinesterase) was more than 30 µM throughout. Besides, the half-maximal activity concentration (AC50) was more than 3 µM at Thromboxane A2 receptor [5]; 11.3 µM in [6]; 5.98 µM in test [7]; more than 3 µM at Thromboxane A2 receptor [8]; more than 30 µM in [9]; more than 30 µM at Histamine H3 receptor. In [10], this compound had a half-maximal activity concentration (AC50) of more than 30 µM.
In the case of `CC(=O)OC[C@H]1O[C@@H](n2ncc(=O)[nH]c2=O)[C@H](OC(C)=O)[C@@H]1OC(C)=O` [AZARIBINE], the AC50 (in test [1]; in test [2]; in test [3]; in [4]; at Prothrombin; at Acetylcholinesterase) was more than 30 µM each time. Moreover, the AC50 (on Thromboxane A2 receptor [5]; in test [6]; in test [7]; on Thromboxane A2 receptor [8]; in [9]; on Histamine H3 receptor) was more than 30 µM throughout. This compound came in with a half-maximal activity concentration (AC50) in test [10] of more than 30 µM.
`O=C(O)COCCN1CCN(C(c2ccccc2)c2ccc(Cl)cc2)CC1` (centres undefined) [CETIRIZINE]: the AC50 (in test [2]; in [3]; in test [4]; on Prothrombin; at Thromboxane A2 receptor [5]; in test [6]) was more than 30 µM in each case. Also, the half-maximal activity concentration (AC50) on Thromboxane A2 receptor [8] is more than 30 µM; on Histamine H3 receptor, more than 30 µM; in [12], more than 10 µM; in [13], more than 10 µM; in [10], more than 30 µM.
